{
  "source": "patent US9035133B2",
  "about": "“Herbicide-resistant sunflower plants and methods of use” (priority 2006, dated 2015)",
  "type_in_all_cases": "in vivo, Helianthus annuus",
  "key": {"MUT31 sunflower plants": {"test_system": "MUT31 sunflower plants", "test": "Greenhouse factorial experiment, herbicide damage score (imazamox with or without malathion)", "conditions": "7 days after spraying", "experimental": "(§1) FIG. 1 is a graphical representation of the results of a 2×3×2 factorial experiment to the test the effects of sunflower genotype (RHA266 or MUT31), herbicide dose (0, 0.25X, and, 0.50X; where X=50 g a.i./ha imazamox), and malathion (0 or 1000 g a.i./ha). The sunflower plants were at the 3-4 leaf growth stage at time of malathion and herbicide spraying. Malathion was sprayed on the plants 30 minutes prior to the imazamox spraying. The sunflower plants were evaluated at 7 days after herbicide spraying to determine damage scores. Additional details are provided below in Example 3.\n(§2) To evaluate the detoxification ability of MUT31 sunflower plants, an experiment was conducted in the greenhouse. The objective of the experiment was to determine if the imazamox tolerance of MUT31 plants is associated with detoxification mechanism that is mediated by a P450 monooxygenase enzyme (referred to herein as “P450 enzyme”). […] Thus, plants comprising enhanced herbicide tolerance that is due to an altered P450 enzyme are expected to become less tolerant or susceptible to the herbicide when malthion is applied to the plants before they are treated with the herbicide.\n(§3) A factorial experiment with three factors: genotypes (MUT31 and RHA266), herbicide dose (Control, 0.25X , and 0.50X; where X=50 g ai/ha imazamox) and malathion (with or without malathion) was arranged in a randomized split-split plot block design. Imazamox (SWEEPER) was sprayed at the 3-4 leaf growth stage. The P450 inhibitor malathion was sprayed at a rate of 1000 g ai/ha 30 minutes prior to herbicide spraying."}, "RHA266 sunflower plants": {"test_system": "RHA266 sunflower plants", "test": "Greenhouse factorial experiment, herbicide damage score (imazamox with or without malathion)", "conditions": "7 days after spraying", "experimental": "as §1, §2, §3"}, "[1]": {"test_system": "sunflower Entry 2, IMI cms × IMI restorer, A205V homo", "test": "Field trial, phytotoxicity rating (% crop injury)", "conditions": "21 DAT", "experimental": "(§4) A field trial was conducted to compare the herbicide tolerance of sunflower hybrids carrying the MUT31 trait and the A205V mutation in a sunflower AHASL gene (A205V/A205V). A sunflower AHASL gene with the A205V mutation encodes a AHASL protein which has a valine at amino acid that corresponds to amino acid position 205 in the Arabidopsis thaliana AHASL protein. The amino acid at the same position in a wild-type sunflower AHASL protein is alanine. In the amino acid sequence of the sunflower AHASL protein, this alanine-to-valine amino acid substitution is at amino acid position 190. By convention, the sites of amino acid substitutions that are known to give rise to herbicide resistance in plant AHASL proteins are typically referred to by the position of the substitution in the amino acid sequence of the Arabidopsis AHASL protein.\n(§5) Seed from each entry was produced under optimum seed production conditions in South America in 2005/2006. The field trial was conducted at one location in North Dakota, USA in 2006. The entries were organized in a randomized complete block using a split plot design consisting of 3 replications for each treatment combination. Factor A was the herbicide treatment, and factor B was the sunflower entry. The plot size was 4 rows×12 ft and the seeding rate was consistent with local agronomic practices. The spray volume was 10 gallons per acre (GPA) (or 100 liters/ha) for a backpack sprayer or 20 GPA (or 200 liters/ha) for a tractor mounted boom. The herbicide treatments were applied at the 2-4 leaf growth stage.\n(§6) Phytotoxicity ratings were assessed at 7 days and 21 days following herbicide application. Phytotoxicity was recorded as the amount of plant damage (in percent), where a rating of ‘0’ indicated no damage to the plants in the plot relative to the untreated plot. A rating of ‘100’ indicated complete necrosis (death) of the plants in the plot relative to the untreated plot.\n(§7) The data was subjected to an ANOVA analysis and the means from the 3 repetitions are presented in Table 8 (phytotoxicity at 21 days post-treatment)."}, "[2]": {"test_system": "sunflower Entry 1, IMI Restorer, A205V homo", "test": "Field trial, phytotoxicity rating (% crop injury)", "conditions": "21 DAT", "experimental": "as §4, §5, §6, §7"}, "[3]": {"test_system": "sunflower Entry 8, MUT31 Restorer, MUT31 homo", "test": "Field trial, phytotoxicity rating (% crop injury)", "conditions": "21 DAT", "experimental": "as §4, §5, §6, §7"}, "MUT31": {"test_system": "MUT31", "test": "Previous studies (data not shown), crop injury"}, "[4]": {"test_system": "sunflower Entry 3, WT × IMI restorer, A205V hetero", "test": "Field trial, phytotoxicity rating (% crop injury)", "conditions": "50 g ai/ha imazamox + 0.25% (v/v) NIS, 21 DAT", "experimental": "as §4, §5, §6, §7"}, "[5]": {"test_system": "sunflower Entry 6, IMI cms × MUT31 restorer, A205V/MUT31 hetero", "test": "Field trial, phytotoxicity rating (% crop injury)", "conditions": "21 DAT", "experimental": "as §4, §5, §6, §7"}, "[6]": {"test_system": "sunflower Entry 5, A837 cms × IMI restorer, A205V hetero", "test": "Field trial, phytotoxicity rating (% crop injury)", "conditions": "50 g ai/ha imazamox + 0.25% (v/v) NIS, 21 DAT", "experimental": "as §4, §5, §6, §7"}, "[7]": {"conditions": "herbicide dose 0× (control), malathion 1000 g ai/ha alone"}, "[8]": {"conditions": "herbicide dose 0× (control), malathion 1000 g ai/ha alone, listed as Malathion"}, "[9]": {"conditions": "160 g ai/ha imazapyr + 0.25% (v/v) NIS"}, "[10]": {"conditions": "100 g ai/ha imazamox + 0.25% (v/v) NIS"}, "[11]": {"conditions": "0.25× imazamox (X=50 g ai/ha), malathion 1000 g ai/ha 30 minutes prior"}, "[12]": {"conditions": "0.25× imazamox (X=50 g ai/ha), no malathion"}, "[13]": {"conditions": "0.50× imazamox (X=50 g ai/ha), malathion 1000 g ai/ha 30 minutes prior"}, "[14]": {"conditions": "0.50× imazamox (X=50 g ai/ha), no malathion"}},
  "data": [
    {"smiles": "CCOC(=O)CC(SP(=S)(OC)OC)C(=O)OCC", "note": "(stereo not drawn) [malathion, diethyl-dimethoxythiophosphorylthio-succinate]", "values": [
      {"measurement": "Mean Herbicide Damage Score", "setting": "MUT31 sunflower plants; [7]", "result": "no effect"},
      {"measurement": "Mean Herbicide Damage Score", "setting": "MUT31 sunflower plants; [8]", "result": 0.00, "unit": "%"},
      {"measurement": "Mean Herbicide Damage Score", "setting": "RHA266 sunflower plants; [7]", "result": "no effect"},
      {"measurement": "Mean Herbicide Damage Score", "setting": "RHA266 sunflower plants; [8]", "result": 0.00, "unit": "%"}
    ]},
    {"smiles": "CC(C)C1(C)N=C(c2ncccc2C(=O)O)NC1=O", "note": "(stereo not drawn) [imazapyr]", "values": [
      {"measurement": "Phytotoxicity Rating (% Crop Injury)", "setting": "[1]; [9]", "result": 3.33, "unit": "%"},
      {"measurement": "Phytotoxicity Rating (% Crop Injury)", "setting": "[2]; [9]", "result": 6.67, "unit": "%"},
      {"measurement": "Phytotoxicity Rating (% Crop Injury)", "setting": "[3]; 80 g ai/ha imazapyr + 0.25% (v/v) NIS", "result": 88.33, "unit": "%"},
      {"measurement": "crop injury", "setting": "MUT31; 100 g ai of imazapyr per hectare", "result": 100, "unit": "%"}
    ]},
    {"smiles": "COCc1cnc(C2=NC(C)(C(C)C)C(=O)N2)c(C(=O)O)c1", "note": "(stereo not drawn) [imazamox]", "values": [
      {"measurement": "Phytotoxicity Rating (% Crop Injury)", "setting": "[1]; [10]", "result": 3.33, "unit": "%"},
      {"measurement": "Phytotoxicity Rating (% Crop Injury)", "setting": "[4]", "result": 6.67, "unit": "%"},
      {"measurement": "Phytotoxicity Rating (% Crop Injury)", "setting": "[5]; 50 g ai/ha imazamox + 0.25% (v/v) NIS", "result": 1.67, "unit": "%"},
      {"measurement": "Phytotoxicity Rating (% Crop Injury)", "setting": "[5]; 200 g ai/ha imazamox + 0.25% (v/v) NIS", "result": 43, "unit": "%"},
      {"measurement": "Phytotoxicity Rating (% Crop Injury)", "setting": "[2]; [10]", "result": 6.67, "unit": "%"},
      {"measurement": "Phytotoxicity Rating (% Crop Injury)", "setting": "[6]", "result": 3.33, "unit": "%"},
      {"measurement": "Phytotoxicity Rating (% Crop Injury)", "setting": "[3]; 37.5 g ai/ha imazamox + 0.25% (v/v) NIS", "result": 47, "unit": "%"},
      {"measurement": "Mean Herbicide Damage Score", "setting": "MUT31 sunflower plants; [11]", "result": 30.35, "unit": "%"},
      {"measurement": "Mean Herbicide Damage Score", "setting": "MUT31 sunflower plants; [12]", "result": 9.50, "unit": "%"},
      {"measurement": "Mean Herbicide Damage Score", "setting": "MUT31 sunflower plants; [13]", "result": 40.31, "unit": "%"},
      {"measurement": "Mean Herbicide Damage Score", "setting": "MUT31 sunflower plants; [14]", "result": 20.13, "unit": "%"},
      {"measurement": "Mean Herbicide Damage Score", "setting": "RHA266 sunflower plants; [11]", "result": 45.30, "unit": "%"},
      {"measurement": "Mean Herbicide Damage Score", "setting": "RHA266 sunflower plants; [12]", "result": 27.95, "unit": "%"},
      {"measurement": "Mean Herbicide Damage Score", "setting": "RHA266 sunflower plants; [13]", "result": 45.50, "unit": "%"},
      {"measurement": "Mean Herbicide Damage Score", "setting": "RHA266 sunflower plants; [14]", "result": 42.35, "unit": "%"},
      {"measurement": "crop injury", "setting": "MUT31; 75 g ai of imazamox per hectare", "result": 100, "unit": "%"}
    ]}
  ]
}
